Test results reported in paper PMC4361473, “A New System for Profiling Drug-Induced Calcium Signal Perturbation in Human Embryonic Stem Cell–Derived Cardiomyocytes” (Journal of Biomolecular Screening, 2015).
Read-outs that look alike come from different tables or passages of the source.

How the values were obtained:
Cytiva hSCCMs [1] = test: SALVO profiling of drug-evoked Ca2+ signal perturbation (fluo-4 confocal imaging)
Source text: Cytiva hSCCMs were derived from monolayer differentiation of an H7 hESC cell line that had been expanded under feeder-free conditions and then subjected to a proprietary differentiation protocol (GE Healthcare, Piscataway, NJ, USA).[13] […] Cells were thawed and seeded into 7-mm^2 chambers created by the adherence of silicon gaskets (CultureWell MultiWell 3 mm in diameter, 1-mm-depth inserts [Life Technologies]) on glass-bottomed culture chambers (In Vitro Scientific, Sunnyvale, CA, USA) that had been precoated with Matrigel (BD Biosciences, Franklin Lakes, NJ, USA), Franklin Lakes, NJ, USA diluted 1:30 (v/v) in Knockout DMEM (Life Technologies, Carlsbad, CA, USA). […] Cells were allowed to adhere to the coverslip for 2 h before the dish was filled with RPMI/B27 (2 mL). Medium was exchanged every 48 h.
Cells were incubated with fluo-4 AM (5 µM) (Life Technologies) for 1 h at 37°C before coverslips were flooded with RPMI/B27 (2 mL). […] Cells were maintained at 37 °C throughout experiments. […] The application of caffeine (5 mM final concentration) was used to trigger sarcoplasmic reticulum (SR) Ca^2+ release and thereby estimate the intra-SR Ca^2+ store load.
Taking our lead from Uhlen’s method of using spectral analysis to investigate the organization of Ca^2+ signals,[14] we developed SALVO to decode the spatiotemporal patterning of Ca^2+ oscillations within individual cells and across multicellular populations. SALVO outputs 30 parameters that describe Ca^2+ signal organization,[15] but for the purposes of this study, we focused on five parameters: oscillation rate (rate, Hz) and four other parameters that quantify the amplitude and temporal patterning of Ca^2+ oscillation: (1) amplitude heterogeneity index (AHI) and (2) temporal heterogeneity index (THI), statistical assessments of signal amplitude and temporal variability within single cells, respectively; (3) intertransient noise (ITN), defined as the Ca^2+ signal variability occurring between Ca^2+ oscillations and that extends the use of signal variability (SV) to measure point-by-point differences in very low-amplitude Ca^2+ signals[6],[10],[12]; and (4) synchronization, an index of the temporal coincidence of Ca^2+ oscillation maxima occurring across cells in the population. The calculation of these parameters is described in Supplementary Figure S1. SALVO is implemented using a Python-based computer program.[15] The detection of signal maxima and minima over a 30-s period in data obtained from 6 to 20 cells in each instance was performed using SALVO’s autodetection algorithms (based on spline detect or threshold detection methods) or by manual assignation of the start, peak, and end of each Ca^2+ spike. SALVO outputs were archived and interrogated using a custom-built SQL-based database system (DB Miner, CHG, NCS, SBJ).
Baseline assessments of Ca^2+ signals in fluo-4–loaded cells prior to the addition of drug (control) were established as described above.
After each addition and following a period of equilibration (approximately 90 s), fluo-4–dependent Ca^2+ signals were acquired for 30 s. Using this protocol, the same population of cells was imaged throughout the entire drug addition sequence.
In all experiments, operators were blinded to the identities of the drugs under test throughout all phases of postexperimental data analysis.
Supplementary Table 2. EC20 values for Ca2+ perturbation.
Drug concentrations (nM) that produced a 20% change from control values (no drug) were calculated for each SALVO parameter from regression analysis of […]
The effective therapeutic plasma concentration of free drug (ETPCunbound, nM) was calculated in Supplementary Table 1.
Calculate percentage effect size (E) for each SALVO parameter, normalized to Ew = E x λ control conditions, at each drug concentration Effect size (E,%) λ
Cumulative Ew for drug concentrations of 0.1, 1, 10, 100 and 1000 nM for The relationship between E and λ is given by […]

Cytiva hSCCMs [2] = test: Whole-cell current-clamp recording of spontaneous action potentials (APD90); format: cell-based, human; details: drug at EC20 concentration, 3 min; Fridericia-corrected; blebbistatin-immobilized cells
Protocol: Cells in 35-mm glass-bottomed culture dishes containing a superfusion insert (AutoMate PCP-1; Digitimer Ltd., Welwyn Garden City, UK) were mounted on the stage of an inverted microscope (CKX-41; Olympus, Tokyo, Japan) and were superfused with normal Tyrode (NT) solution (containing [in mM] NaCl, KCl, MgCl2 [1], CaCl2 [2], HEPES [10], glucose; pH 7.4 with NaOH) or NT-containing drugs maintained at 37 °C using a heated jacket.
Cells were whole-cell clamped with 3- to 4-MΩ patches and an intrapipette solution (containing in [mM] KCl, MgCl2 [1.75], CaCl2 [5.37], EGTA [10], HEPES [10], and Na2ATP [4]; pH 7.2 with KOH) in current-clamp (IC) mode using a CV-7B headstage and MultiClamp 700B amplifier controlled by MultiClamp software (Molecular Devices, Sunnyvale, CA). Data were digitized and acquired using a Digidata 1322a card and pClamp software, respectively (Molecular Devices). Action potentials were sampled at a rate of 20 kHz and low pass (Bessel) filtered at 10 kHz.
Spontaneous cell contracture was terminated using blebbistatin (5 µM, 10 min), an agent that inhibits myofilament shortening and thereby negates patch-clamp recording instability but preserves normal Ca^2+ cycling.[20] […] Action potential (AP) recordings from blebbistatin-immobilized cells were taken under control (no-drug) conditions (1 min) and following the switch to drug-containing NT. APD90, corrected for AP cycle length using Fridericia’s method (APD90(corr) = APD90/cycle length^[…]), was calculated from five consecutive APs following a 3-min exposure of the cells to drug.
Figure 4. Investigating the effect of cardiovascular-active drugs on Cytiva APD90. (A) Cells were exposed to drugs at EC20 concentrations for 3 min (Suppl. Table S2). APD90 values were corrected for beat period using Fridericia’s algorithm. Data points represent individual paired experiments (n = 6). Representative control (gray) and drug-treated (black) action potential traces are shown. (B) APD90 plotted as the percentage change relative to the paired control value (no drug). *p < 0.05. **p < 0.01.

[3] = Effective therapeutic plasma concentration (ETPC, ETPCunbound); format: in vivo, human; details: free plasma concentration calculated from ETPC and free drug %, Supplementary Table 1
Source text: There is also the issue regarding the relevance of drug potency determined in vitro to clinical dosing in humans. Guo and colleagues[25],[27] used an impedance-derived index of arrhythmic beating in hSCCMs to derive a predicted proarrhythmic score (PPS) that took into account the therapeutically relevant total concentration of drug in human plasma (defined as Ceff). More recently, Clements and Thomas[13] used a similar approach to generate a predictive risk score (PRS) based on their measurement of field potential duration (FPD) in Cytiva.
Supplementary Table 1. Calculating the free plasma concentration of […]
described by Redfern et al. (Redfern et al. (2003) Cardiovasc. Res. 58:32-45) was used to calculate the levels of free drug (ETPCunbound). ETPC for nadolol and valdecoxib were from Krukemyer et al. (Pharm. Res. (1990) 9:953-956) and Yuan et al. (Drug Metab. Disp. (2002) 30:1013-1021), respectively. The values for drug-protein binding were obtained from DrugBank (www.drugbank.ca).

[4] = maximal effective therapeutic plasma concentration, cited from earlier work
[5] = set-up: method as in DrugBank (www.drugbank.ca); details: from drug-protein binding values; ref DrugBank (www.drugbank.ca); cited from earlier work
[6] = cited from earlier work; for TdP risk category: categories assigned by Redfern and colleagues
[7] = 20% change from control in amplitude heterogeneity index, regression of Figure 3 data
[8] = 20% change from control in intercellular synchronization, regression of Figure 3 data
[9] = 20% change from control in intertransient noise, regression of Figure 3 data
[10] = 20% change from control in temporal heterogeneity index, regression of Figure 3 data
[11] = drug concentration producing a 20% change from control (no drug) in Ca2+ oscillation rate, regression of Figure 3 data
[12] = five-parameter SALVO output integrated over 0.1-1000 nM, normalized to control
[13] = spontaneously oscillating Cytiva, concentrations up to 30 µM
[14] = spontaneously oscillating Cytiva

Compound	Effect on APD90 (action potential duration) (Cytiva hSCCMs [2])	ETPCunbound [3]	EC20 AHI (Cytiva hSCCMs [1]; [7])	EC20 Synch (Cytiva hSCCMs [1]; [8])	EC20 ITN (Cytiva hSCCMs [1]; [9])	EC20 THI (Cytiva hSCCMs [1]; [10])	EC20 Rate (Cytiva hSCCMs [1]; [11])	SALVO toxicity score, rank order of the extent of Ca2+ perturbation (Cytiva hSCCMs [1]; [12])	Effect on Ca2+ handling (SALVO parameters) (Cytiva hSCCMs [1]; [13])	TdP risk category [6]	further results
O=C(NCC1CCCCN1)c1cc(OCC(F)(F)F)ccc1OCC(F)(F)F (centres unmarked) [Flecainide, flecainide]	no effect	1159 nM	0.26 µM	> 30 µM	2.11 µM	0.285 µM	0.215 µM	astemizole > thioridazine > cisapride > flecainide > valdecoxib > sotalol > nadolol	large effect sizes in multiple parameters		Predicted proarrhythmic score (PPS) (Cytiva hSCCMs [1]; PPS = ETPCunbound/EC20): elevated PPS
COc1ccccc1OCC(O)CN1CCN(CC(=O)Nc2c(C)cccc2C)CC1 (centres unmarked) [Ranolazine, ranolazine]									unchanged Ca^2+ cycling		Effect on intercellular synchronization (Cytiva hSCCMs [1]; [14]): reduced intercellular synchronization
COc1ccc(CCN(C)CCCC(C#N)(c2ccc(OC)c(OC)c2)C(C)C)cc1OC (centres unmarked) [Verapamil, verapamil]									no measurable effect		Concentration reducing the rate of Ca2+ oscillation (Cytiva hSCCMs [1]; [14]): > 10 µM
CCCCc1oc2ccccc2c1C(=O)c1cc(I)c(OCCN(CC)CC)c(I)c1 [amiodarone]										category 1	
CC(CC(c1ccccc1)c1ccccc1)NC(C)(C)C (centres unmarked) [terodiline]										category 2	

Continued, in another order:

Effect on APD90 (action potential duration) (Cytiva hSCCMs [2])	ETPCunbound [3]	Compound	EC20 AHI (Cytiva hSCCMs [1]; [7])	EC20 Synch (Cytiva hSCCMs [1]; [8])	EC20 ITN (Cytiva hSCCMs [1]; [9])	EC20 THI (Cytiva hSCCMs [1]; [10])	EC20 Rate (Cytiva hSCCMs [1]; [11])	SALVO toxicity score, rank order of the extent of Ca2+ perturbation (Cytiva hSCCMs [1]; [12])	Effect on Ca2+ handling (SALVO parameters) (Cytiva hSCCMs [1]; [13])	TdP risk category [6]	further results
	271 nM	CC(C)(C)NCC(O)COc1cccc2c1CC(O)C(O)C2 (centres unmarked) [Nadolol, nadolol]	> 30 µM	> 30 µM	> 30 µM	> 30 µM	> 30 µM	astemizole > thioridazine > cisapride > flecainide > valdecoxib > sotalol > nadolol	no measurable effect	category 5	ETPC ([4]; ref Krukemyer et al. (Pharm. Res. (1990) 9:953-956)): 387 nM; Free drug [5]: 70%
	14733 nM	CC(C)NCC(O)c1ccc(NS(C)(=O)=O)cc1 (centres unmarked) [Sotalol, sotalol]	0.21 µM	> 30 µM	> 30 µM	> 30 µM	> 30 µM	astemizole > thioridazine > cisapride > flecainide > valdecoxib > sotalol > nadolol			Predicted proarrhythmic score (PPS) (Cytiva hSCCMs [1]; PPS = ETPCunbound/EC20): ~ 15; Concentration causing an isolated change in AHI (Cytiva hSCCMs [1]; [14]): > 1 µM; Effect on intercellular synchronization (Cytiva hSCCMs [1]; [14]): did not reduce the extent of intercellular synchronization; ETPCunbound ([3]; listed as sotalol): 14,733 nM; ETPC ([4]; ref Redfern et al. (2003) Cardiovasc. Res. 58:32-45): 14733 nM; Therapeutic plasma concentration with QT-prolonging effects ([6]; reported, no reference given): exceeding 10 µM
increased APD90	89 nM	CSc1ccc2c(c1)N(CCC1CCCCN1C)c1ccccc1S2 (centres unmarked) [Thioridazine, thioridazine]	0.205 µM	0.12 µM	0.11 µM	0.53 µM	1.12 µM	astemizole > thioridazine > cisapride > flecainide > valdecoxib > sotalol > nadolol	large effect sizes in multiple parameters		PPS rank order (Cytiva hSCCMs [1]; PPS = ETPCunbound/EC20): thioridazine > cisapride > valdecoxib
no effect	45 nM	Cc1onc(-c2ccccc2)c1-c1ccc(S(N)(=O)=O)cc1 [Valdecoxib, valdecoxib]									EC20 AHI (Cytiva hSCCMs [1]): 0.685 µM; EC20 ITN (Cytiva hSCCMs [1]): > 30 µM; EC20 Rate (Cytiva hSCCMs [1]): 9.87 µM; EC20 Synch (Cytiva hSCCMs [1]): > 30 µM; EC20 THI (Cytiva hSCCMs [1]): 12.8 µM; Effect on Ca2+ handling (SALVO parameters) (Cytiva hSCCMs [1]): large effect sizes in multiple parameters; PPS rank order (Cytiva hSCCMs [1]): thioridazine > cisapride > valdecoxib; SALVO toxicity score, rank order of the extent of Ca2+ perturbation (Cytiva hSCCMs [1]): astemizole > thioridazine > cisapride > flecainide > valdecoxib > sotalol > nadolol; ETPC ([4]; ref Yuan et al. (Drug Metab. Disp. (2002) 30:1013-1021)): 2257 nM; Free drug [5]: 2%
